Here are results for twelve compounds from ChEMBL document CHEMBL4265961, “Efficient optimization of pyrazolo[3,4-d]pyrimidines derivatives as c-Src kinase inhibitors in neuroblastoma treatment” (Bioorg Med Chem Lett, 2018).

≈ marks a conversion by molar mass, not a printed value. Calls of active or inactive are those of the source. The rule behind the calls is not given here.

For the first data set, the system named is SH-SY5Y. Kind of data set: Antiproliferative activity against human SH-SY5Y cells at 1 to 10 uM after 72 hrs by nucleo cell counting method. In kind it is functional, cell-based.
Details: not given
`OCCNc1nc(Nc2cc(O)ccc2Cl)c2cnn(CC(Cl)c3ccccc3)c2n1` (stereo not drawn): the outcome was Active.

Turning to `CSc1nc(Nc2cc(O)ccc2Cl)c2cnn(CC(C)c3ccccc3)c2n1` (stereo not drawn), the outcome was Active.

Consider `Oc1ccc(Cl)c(Nc2nc(SCCN3CCOCC3)nc3c2cnn3CC(Cl)c2ccccc2)c1` (stereo not drawn), for which the result was Active.

The test system of the next data set is SH-SY5Y. Nature of the data set: Antiproliferative activity against human SH-SY5Y cells after 72 hrs by nucleo cell counting method.
Details: not given
Usually IC50 stands for the concentration at which inhibition is half-maximal. Low readings indicate greater potency, high ones weaker potency. As for `OCCNc1nc(Nc2cc(O)ccc2Cl)c2cnn(CC(Cl)c3ccccc3)c2n1` (stereo not drawn), the IC50 was 3.1 µM.

Consider `CSc1nc(Nc2cc(O)ccc2Cl)c2cnn(CC(C)c3ccccc3)c2n1` (stereo not drawn), for which half-maximal inhibition (IC50) required 6.7 µM. This IC50 lies about 2.2-fold higher than the previous one.

On to `Oc1ccc(Cl)c(Nc2nc(SCCN3CCOCC3)nc3c2cnn3CC(Cl)c2ccccc2)c1` (stereo not drawn), for which the IC50 is 6.6 µM.

System in another data set: not listed separately
Nature of the data set: Apparent permeability of the compound after 5 hrs by PAMPA. Format: ADME.
Details: not given
As a reminder, the Papp is the rate of passage across a membrane or cell layer, normalised by area and donor concentration. Consider `Oc1cccc(Nc2nc(SCCN3CCOCC3)nc3c2cnn3CC(Cl)c2ccccc2)c1` (stereo not drawn), for which the Papp at 5 h amounted to 4.44 ×10⁻⁶ cm/s.

`OCCNc1nc(Nc2cc(O)ccc2Cl)c2cnn(CC(Cl)c3ccccc3)c2n1` (stereo not drawn): the Papp at 5 h is 2.7 ×10⁻⁶ cm/s.

Take `CSc1nc(Nc2cc(O)ccc2Cl)c2cnn(CC(Cl)c3ccccc3)c2n1` (stereo not drawn): the Papp at 5 h amounted to 3.23 ×10⁻⁶ cm/s.

For `CSc1nc(Nc2cc(O)ccc2Cl)c2cnn(CC(C)c3ccccc3)c2n1` (stereo not drawn), the Papp at 5 h is 8.33 ×10⁻⁶ cm/s.

As for `Oc1ccc(Cl)c(Nc2nc(SCCN3CCOCC3)nc3c2cnn3CC(Cl)c2ccccc2)c1` (stereo not drawn), the Papp at 5 h worked out at 9.74 ×10⁻⁶ cm/s.

With `Oc1ccc(Cl)c(Nc2ncnc3c2cnn3CC(Cl)c2ccccc2)c1` (stereo not drawn), the Papp at 5 h was found to be 4.39 ×10⁻⁶ cm/s.

With `CC(Cn1ncc2c(Nc3cc(O)ccc3Cl)nc(NCCN)nc21)c1ccccc1` (stereo not drawn), the Papp at 5 h turned out to be 2.2 ×10⁻⁶ cm/s.

Turning to `CC(Cn1ncc2c(Nc3cccc(O)c3)nc(SCCN3CCOCC3)nc21)c1ccccc1` (stereo not drawn), the Papp at 5 h was found to be 6.81 ×10⁻⁶ cm/s.

Regarding `CC(Cn1ncc2c(Nc3cc(O)ccc3Cl)nc(NCCO)nc21)c1ccccc1` (stereo not drawn), the Papp at 5 h stood at 0.1 ×10⁻⁶ cm/s.

For the compound `CC(Cn1ncc2c(Nc3cccc(O)c3)nc(NCCO)nc21)c1ccccc1` (stereo not drawn), the Papp at 5 h was determined as 0.2 ×10⁻⁶ cm/s.

In the case of `CC(Cn1ncc2c(Nc3cc(O)ccc3Cl)nc(SCCN3CCOCC3)nc21)c1ccccc1` (stereo not drawn), the Papp at 5 h stood at 11.2 ×10⁻⁶ cm/s.

System in the next data set: not listed separately
Nature of the data set: Aqueous solubility in water at 1 mg after 24 hrs at 20 degC by UV/LC-MS analysis. Format: physicochemical.
Details: not given
As usually defined, the solubility is the concentration that dissolves in the medium under given conditions. A high value points to a readily soluble substance. `Oc1cccc(Nc2nc(SCCN3CCOCC3)nc3c2cnn3CC(Cl)c2ccccc2)c1` (stereo not drawn) had a solubility at 24 h of 0.197 µg/mL (≈ 0.385 µM).

On to `OCCNc1nc(Nc2cc(O)ccc2Cl)c2cnn(CC(Cl)c3ccccc3)c2n1` (stereo not drawn), for which the concentration in solution (solubility at 24 h) came to 0.042 µg/mL (≈ 0.0914 µM).

Compound `Oc1ccc(Cl)c(Nc2ncnc3c2cnn3CC(Cl)c2ccccc2)c1` (stereo not drawn) displayed a solubility at 24 h of 0.053 µg/mL (≈ 0.132 µM).

On to `CC(Cn1ncc2c(Nc3cc(O)ccc3Cl)nc(NCCN)nc21)c1ccccc1` (stereo not drawn), for which the solubility at 24 h is 0.1 µg/mL (≈ 0.228 µM).

Compound `CC(Cn1ncc2c(Nc3cccc(O)c3)nc(SCCN3CCOCC3)nc21)c1ccccc1` (stereo not drawn) yielded a solubility at 24 h of 0.1 µg/mL (≈ 0.204 µM).

`CC(Cn1ncc2c(Nc3cc(O)ccc3Cl)nc(NCCO)nc21)c1ccccc1` (stereo not drawn) showed a solubility at 24 h of 0.103 µg/mL (≈ 0.235 µM).

`CC(Cn1ncc2c(Nc3cccc(O)c3)nc(NCCO)nc21)c1ccccc1` (stereo not drawn): the concentration in solution (solubility at 24 h) was 134 µg/mL (≈ 332 µM).

As to `CC(Cn1ncc2c(Nc3cc(O)ccc3Cl)nc(SCCN3CCOCC3)nc21)c1ccccc1` (stereo not drawn), the concentration in solution (solubility at 24 h) came to 0.031 µg/mL (≈ 0.059 µM).

System in the next data set: not listed separately
Nature of the data set: Metabolic stability in human liver microsomes after 60 mins in presence of NADPH by UV/LC-MS analysis. In kind it is ADME, microsome. To be noted: read-out: Stability. On the technique in general: Microsomes from liver hold many membrane-bound enzymes, among them those of drug oxidation.
For `Oc1cccc(Nc2nc(SCCN3CCOCC3)nc3c2cnn3CC(Cl)c2ccccc2)c1` (stereo not drawn), the remaining at 1 h was 98.7%.

On to `OCCNc1nc(Nc2cc(O)ccc2Cl)c2cnn(CC(Cl)c3ccccc3)c2n1` (stereo not drawn), for which the remaining at 1 h is 97.2%.

For the compound `CSc1nc(Nc2cc(O)ccc2Cl)c2cnn(CC(Cl)c3ccccc3)c2n1` (stereo not drawn), the remaining at 1 h was 96.4%.

In the case of `CC(C)Sc1nc(Nc2cccc(O)c2)c2cnn(CC(Cl)c3ccccc3)c2n1` (stereo not drawn), the remaining at 1 h was determined as 93.5%.

With `CSc1nc(Nc2cc(O)ccc2Cl)c2cnn(CC(C)c3ccccc3)c2n1` (stereo not drawn), the remaining at 1 h came to 92.7%.

With `Oc1ccc(Cl)c(Nc2nc(SCCN3CCOCC3)nc3c2cnn3CC(Cl)c2ccccc2)c1` (stereo not drawn), the remaining at 1 h came to 96.9%.

As for `Oc1ccc(Cl)c(Nc2ncnc3c2cnn3CC(Cl)c2ccccc2)c1` (stereo not drawn), the remaining at 1 h worked out at 86.3%.

On to `CC(Cn1ncc2c(Nc3cc(O)ccc3Cl)nc(NCCN)nc21)c1ccccc1` (stereo not drawn), for which the remaining at 1 h was found to be 98.4%.

Turning to `CC(Cn1ncc2c(Nc3cccc(O)c3)nc(SCCN3CCOCC3)nc21)c1ccccc1` (stereo not drawn), the remaining at 1 h is 99%.

Turning to `CC(Cn1ncc2c(Nc3cc(O)ccc3Cl)nc(NCCO)nc21)c1ccccc1` (stereo not drawn), the remaining at 1 h was 97.9%.

Regarding `CC(Cn1ncc2c(Nc3cccc(O)c3)nc(NCCO)nc21)c1ccccc1` (stereo not drawn), the remaining at 1 h was determined as 99.4%.

As for `CC(Cn1ncc2c(Nc3cc(O)ccc3Cl)nc(SCCN3CCOCC3)nc21)c1ccccc1` (stereo not drawn), the remaining at 1 h turned out to be 97.9%.

The test system of another data set is SH-SY5Y. Kind of data set: Cell cycle arrest in human SH-SY5Y cells assessed as accumulation at G1 phase after 48 hrs by propidium iodide staining based flow cytometry. Format: functional.
Details: not given
For `OCCNc1nc(Nc2cc(O)ccc2Cl)c2cnn(CC(Cl)c3ccccc3)c2n1` (stereo not drawn), the Activity result is “Dose-dependent effect”.
